Reference: US20040254129A1, “Use of ethoxylated phytosterols and phytostanols” (priority 2001, published 2004)
Read-outs that look alike come from different tables or passages of the source. Marks after values point to notes of the source that are not given here.

Tests used:
[1] = tested on: erythrocytes extracted from dog blood; experiment: Determination of the lysis of erythrocytes
Method: (§1) Erythrocytes were extracted from dog blood by a centrifugation—resuspension procedure. The fresh blood was subjected to mild centrifugation at 2000×g for 10 mins. The excessive blood plasma was removed and the so-obtained sediment of erythrocytes was resuspended in normal saline (0.9% NaCl in water). This procedure was repeated twice. The final volume of the erythrocyte suspension was equal to the initial volume of the fresh blood. Surfactant solutions with varying concentration of the surfactant were prepared by dissolving and diluting appropriate amounts of surfactants in 0.9% (w/w) NaCl in water. 100 μl surfactant solution was added to 400 μl erythrocyte suspension. The samples were vigorously agitated for 5 seconds immediately after addition, followed by 20 mins incubation at 37° C. under gentle shaking. The samples were centrifuged for 6 mins at 3000 g and 5° C. The centrifugation separated the samples into sediments of intact erythrocytes and a supernatant. A small fraction of the supernatant was removed and analysed with respect to hemoglobin content. The hemoglobin was allowed to undergo a chemical reaction with H2O2, aminophenazon, and phenol. […] From this concentration, the initial concentration of hemoglobin was calculated. Each determination was carried out for triplicate samples.
(§2) Negative control samples, i.e. samples for the determination of background lysis, were prepared by adding 100 μl normal saline to 400 μl erythrocyte suspension. These samples were treated and analysed in the same way as described above.
(§3) Positive control samples, i.e. samples for the determination of total hemoglobin content, were prepared by diluting the erythrocyte suspension 500 times with distilled water. The dilution caused complete lysis of all erythrocytes, and the concentration of released hemoglobin could be determined as described above.
(§4) The degree of lysis was calculated according to the following expression [formula]
(§5) where % L is the degree of lysis in %, [Hb] the concentration of released hemoglobin in the mixture of erythrocytes and surfactant, [Hb]0 the concentration of released hemoglobin in the negative control (basal hemolysis), and [Hb]tot the total concentration of hemoglobin in the mixtures of erythrocytes and surfactant.
(§6) The degree of lysis was determined as a function of the surfactant concentration in the mixture of erythrocytes and surfactant.
(§7) The activity of each surfactant to cause lysis of erythrocytes is indicated by the position of the lysis curve in the diagram. For a surfactant with low activity, a high concentration is required to obtain a certain degree of lysis. Here, the activity is quantified by considering the concentration at which 10% lysis is obtained. The higher the concentration, the lower the activity.

[2] = Solubilization of griseofulvin by surfactants (UV absorption spectrometry); format: physicochemical
Method: For each of the surfactants, four samples with different surfactant concentrations were prepared. The surfactants were dissolved and diluted in pure and filtered water. Griseofulvin was added in excess and the samples were allowed to equilibrate for 4 hours at 45° C. followed by 20 hours at room temperature. The samples were thoroughly shaken during the whole equilibration time. The samples were subsequently centrifuged to remove undissolved griseofulvin. The concentration of dissolved griseofulvin was determined by UV absorption spectrometry. The absorbance was recorded at the wavelength for maximum absorption, λmax=295 nm.
In line with the definition in Example 8, the solubilization capacity becomes [formula]

[3] = tested on: erythrocytes extracted from dog blood
Method: as §1, §2, §3, §4, §5, §6, §7

[4] = tested on: fresh blood taken from beagle dog (red blood cells); experiment: Determination of hemolysis in fresh blood; format: cell-based; conditions: for Hemolytic activity (concentration range at which 5% hemolysis is obtained): surfactant concentration in blood/surfactant mixture, read from hemolysis curves
Method: 100 μl surfactant solution was added to 400 μl fresh blood taken from beagle dog. The blood and surfactant mixture was gently agitated for 2-3 seconds immediately after addition, followed by 10 mins incubation at 37° C. under gentle shaking. […] During centrifugation the sample separated into a sediment of red blood cells and a supernatant. […] Each determination was carried out for triplicate samples.
After 30 minutes 400 μl of the so-obtained solution was mixed with 100 μl normal saline. From the resulting solution, a small fraction was removed and analysed with respect to hemoglobin content with a Cobas Bio spectrophotometer.
The degree of hemolysis was calculated according to the following expression [formula]
The position of the hemolysis curve along the concentration axis in such a diagram determines the hemolytic activity. The more hemolytic a surfactant is, the lower concentration is required to obtain a certain degree of hemolysis. In order to quantify the hemolytic activity, the concentration was considered at which 5% hemolysis was obtained. The higher the concentration, the lower the activity. The procedure was repeated at least once for all surfactants.

[5] = no surfactant; cited from earlier work
[6] = Solubilization of felodipine by surfactants (14C scintillation detection); format: physicochemical; conditions: for solubility of felodipine on addition of the surfactant (in words): 0.9% (w/w) NaCl in water
Method: Both ^14C-labelled and non-labelled felodipine were provided by AstraZeneca AB. In order to obtain a molecularly homogeneous mixture of labelled and non-labelled felodipine, both components were dissolved in chloroform. After a clear solution was obtained, the solvent was evaporated. […] The surfactants were dissolved and diluted in 0.9% (w/w) NaCl in water. The felodipine was added in excess and the samples were allowed to equilibrate for over 48 hours in room temperature under thorough shaking. The samples were filtered using 4 mm Durapore filters (0.45 μm, Millipore) to remove undissolved felodipine. […] From each sample 0.5 ml solution was withdrawn and mixed with 3.5 ml scintillation liquid. The concentration of dissolved felodipine was determined by means of scintillation detection using a Beckman LS6500 scintillation counter.
The solubilization capacity of each surfactant with respect to felodipine was determined by considering the slope of the solubilization curves, α. The slope of each curve, α, describes the additional amount of felodipine that can be dissolved in a solution when a small amount of surfactant is added, which is also the definition of the solubilization capacity. [formula]
The solubilization capacity was calculated by fitting a linear expression to the experimental data and extracting the slope, α.

[7] = surfactant 0.00 mM (no surfactant) in 0.9% (w/w) NaCl

In the case of `OC[C@H]1O[C@H](O[C@H]2[C@H](O)[C@@H](O)[C@H](OCCCCCCC3CCCCC3)O[C@@H]2CO)[C@H](O)[C@@H](O)[C@@H]1O` [Cyclohexyl-hexyl maltoside, cyclohexyl-n-hexyl-β-D-maltopyranoside], the “degree of lysis of erythrocytes, % L” value ([1]; surfactant 0.20 mM in mixture of erythrocytes and surfactant) is reported as 0.31%, the “degree of lysis of erythrocytes, % L” value ([1]; surfactant 0.40 mM in mixture of erythrocytes and surfactant) is reported as 1.96% and the “degree of lysis of erythrocytes, % L” value ([1]; surfactant 0.80 mM in mixture of erythrocytes and surfactant) is reported as 7.60%. For the same compound, the “degree of lysis of erythrocytes, % L” value ([1]; surfactant 1.00 mM in mixture of erythrocytes and surfactant) was 9.67%, the “degree of lysis of erythrocytes, % L” value ([1]; surfactant 2.01 mM in mixture of erythrocytes and surfactant) was 15.11% and the “degree of lysis of erythrocytes, % L” value ([1]; surfactant 2.50 mM in mixture of erythrocytes and surfactant) was 20.28%. For the same compound, the “Activity of lysis (concentration at which 10% lysis is obtained)” value ([1]; surfactant concentration in mixture of erythrocytes and surfactant, read from lysis curves) was 1.1 mM, the “Griseofulvin concentration (solubility of griseofulvin)” value (“Griseofulvin concentration” for short) ([2]; surfactant 2.804 mM in water) was 23.4 µM and the “Griseofulvin concentration” value ([2]; surfactant 5.608 mM in water) was 51 µM. For the same compound, the “Griseofulvin concentration” value ([2]; surfactant 14.019 mM in water) was 132.9 µM and the “Griseofulvin concentration” value ([2]; surfactant 28.038 mM in water) was 272 µM.
With `CCCCCCCCCCCCO[C@@H]1O[C@H](CO)[C@@H](O[C@H]2O[C@H](CO)[C@@H](O)[C@H](O)[C@H]2O)[C@H](O)[C@H]1O` [Dodecyl maltoside, n-dodecyl-β-D-maltopyranoside] the “Activity of lysis (concentration at which 10% lysis is obtained)” value [3] was 0.8 mM, the “Griseofulvin concentration” value ([2]; surfactant 0.811 mM in water) was 10.1 µM and the “Griseofulvin concentration” value ([2]; surfactant 1.622 mM in water) was 22.1 µM. The “Griseofulvin concentration” value ([2]; surfactant 4.054 mM in water) was 58.2 µM, the “Griseofulvin concentration” value ([2]; surfactant 8.108 mM in water) was 115.7 µM and the “degree of hemolysis, % H” value ([4]; surfactant 0.098 mM in blood/surfactant mixture) was 0.456%. For the same compound, the “degree of hemolysis, % H” value ([4]; surfactant 0.196 mM in blood/surfactant mixture) was 1.047%, the “degree of hemolysis, % H” value ([4]; surfactant 0.392 mM in blood/surfactant mixture) was 2.987% and the “degree of hemolysis, % H” value ([4]; surfactant 0.588 mM in blood/surfactant mixture) was 4.772%. The “degree of hemolysis, % H” value ([4]; surfactant 0.784 mM in blood/surfactant mixture) was 7.157%, the “degree of hemolysis, % H” value ([4]; surfactant 0.980 mM in blood/surfactant mixture) was 7.563% and the “degree of hemolysis, % H” value ([4]; surfactant 1.177 mM in blood/surfactant mixture) was 11.208%. For the same compound, the “Hemolytic activity (concentration range at which 5% hemolysis is obtained)” value [4] was 0.6 mM.
In the case of `CCCCCCCCO[C@@H]1O[C@H](CO)[C@@H](O[C@H]2O[C@H](CO)[C@@H](O)[C@H](O)[C@H]2O)[C@H](O)[C@H]1O` [Octyl maltoside, n-octyl-β-D-maltopyranoside], the “Griseofulvin concentration” value ([2]; surfactant 117.6 mM in water) is reported as 323.2 µM, the “Griseofulvin concentration” value ([2]; surfactant 235.1 mM in water) is reported as 442.5 µM and the “Griseofulvin concentration” value ([2]; surfactant 587.8 mM in water) is reported as 445.1 µM. For the same compound, the “Griseofulvin concentration” value ([2]; surfactant 1175.7 mM in water) was 432 µM.
For `COC1=CC(=O)C[C@@H](C)[C@]12Oc1c(Cl)c(OC)cc(OC)c1C2=O` [griseofulvin, Griseofulvin], the “solubility of griseofulvin in pure water” value [5] is listed as 23 µM.
For “polyoxyethylene(20) stearyl ether [Brij ® 78]”, the “solubility of felodipine on addition of the surfactant (in words)” value [6] was “increased”, the “Felodipine concentration (solubility of felodipine)” value (shortened to “Felodipine concentration”) [6, 7] was <0.07 ^† mM and the “Felodipine concentration” value ([6]; surfactant 10.89 mM in 0.9% (w/w) NaCl) was 2.64 mM. The “Felodipine concentration” value ([6]; surfactant 21.79 mM in 0.9% (w/w) NaCl) was 5.22 mM, the “Felodipine concentration” value ([6]; surfactant 32.68 mM in 0.9% (w/w) NaCl) was 7.76 mM and the “Felodipine concentration” value ([6]; surfactant 43.57 mM in 0.9% (w/w) NaCl) was 10.25 mM. The “degree of hemolysis, % H” value ([4]; surfactant 3.48 mM in blood/surfactant mixture) was 1.09%, the “degree of hemolysis, % H” value ([4]; surfactant 3.65 mM in blood/surfactant mixture) was 1.97% and the “degree of hemolysis, % H” value ([4]; surfactant 3.83 mM in blood/surfactant mixture) was 2.47%. For the same compound, the “degree of hemolysis, % H” value ([4]; surfactant 4.00 mM in blood/surfactant mixture) was 3.72%, the “degree of hemolysis, % H” value ([4]; surfactant 4.17 mM in blood/surfactant mixture) was 6.14% and the “degree of hemolysis, % H” value ([4]; surfactant 4.35 mM in blood/surfactant mixture) was 9.21%. The “Hemolytic activity (concentration range at which 5% hemolysis is obtained)” value [4] was 4 mM.
For “polyoxyethylene(23) lauryl ether [Brij ® 35]”, the “solubility of felodipine on addition of the surfactant (in words)” value [6] was “increased”, the “Felodipine concentration” value [6, 7] was <0.07 ^† mM and the “Felodipine concentration” value ([6]; surfactant 10.42 mM in 0.9% (w/w) NaCl) was 1.7070 mM. For the same compound, the “Felodipine concentration” value ([6]; surfactant 20.84 mM in 0.9% (w/w) NaCl) was 3.4064 mM, the “Felodipine concentration” value ([6]; surfactant 31.26 mM in 0.9% (w/w) NaCl) was 5.1085 mM and the “Felodipine concentration” value ([6]; surfactant 41.680 mM in 0.9% (w/w) NaCl) was 6.8927 mM. The “degree of hemolysis, % H” value ([4]; surfactant 8.40 mM in blood/surfactant mixture) was 0.87%, the “degree of hemolysis, % H” value ([4]; surfactant 16.80 mM in blood/surfactant mixture) was 2.37% and the “degree of hemolysis, % H” value ([4]; surfactant 25.20 mM in blood/surfactant mixture) was 5.04%. The “degree of hemolysis, % H” value ([4]; surfactant 33.60 mM in blood/surfactant mixture) was 7.44%, the “degree of hemolysis, % H” value ([4]; surfactant 42.00 mM in blood/surfactant mixture) was 10.85% and the “Hemolytic activity (concentration range at which 5% hemolysis is obtained)” value [4] was 25 mM.
